According to patent publication US20050214387A1, “Low-dose potassium supplementation for the prevention and treatment of hypertension” (priority 2002, published 2005):
“And” between values parts separate entries of the source, which are not always exact repeats. Identical values can stand only once.

What was measured:
[1] = tested on: apparently healthy volunteers; test: Double-blind placebo-controlled low-dose potassium trial: blood pressure (MAP, SBP, DBP); format: in vivo, human; settings: for DBP Week 3 − Week 0 mean difference / MAP Week 3 − Week 0 mean difference / SBP Week 3 − Week 0 mean difference: change Week 0 to 3, n = 30, mean ± SEM; for DBP Week 6 − Week 0 mean difference / MAP Week 6 − Week 0 mean difference / SBP Week 6 − Week 0 mean difference: change Week 0 to 6, n = 30, mean ± SEM
Experimental: A double-blind, placebo controlled trial on 59 volunteers, randomly assigned to receive 24 mmol/d of slow release potassium chloride (n=30) or a placebo (n=29) was conducted. Measures of BP, anthropometric characteristics and urine analysis for electrolytes were recorded during a one-week baseline period. Supplementation was for six weeks during which BP and changes in weight were assessed and a second 24-hour urine collection made. The primary outcome was the change in mean arterial pressure (MAP). Systolic (SBP) and diastolic (DBP) blood pressure were secondary outcomes.
The study took the form of a randomized double-blind, placebo-controlled trial with the aim of testing the effect of potassium supplementation on BP. […] The study consisted of a baseline period of one week during which blood pressure and body weight were measured at the beginning and end, and a 24-hour urine sample was collected to estimate electrolyte intake. During a six weeks intervention phase, BP and body weight were measured at three-week intervals, and a second 24-hour urine sample was collected during the final week. Potassium chloride was administered as one slow release tablet containing 8 mmol of potassium chloride (Slow-K Tablets 600 mg kindly supplied by Alliance Pharmaceuticals Ltd, Avonbridge House, Chippenham, Wiltshire SN15 2BB, UK) three times a day with meals. The placebo contained sorbitol and fructose.
Each BP measurement was performed following current recommendations (Beevers et al., ABC of hypertension, 4th Ed., London, BMJ Publishing Group, 2000). BP was assessed at the same time of day (within 30 minutes) for every appointment to avoid the influence of circadian variations in BP (Id.), at approximately the same heart rate, and by the same observer using the same instruments throughout the study for each measurement. The subjects were instructed not to smoke, eat or drink during the 30 minutes before each appointment They were also given verbal and written notice to avoid exercising 30 minutes before the appointment, to come to the appointment with an empty bladder and to maintain strictly their usual habits on the day of the appointment (coffee, tea, meals consumed at the same time of the day). BP measurements were performed after the subjects had rested quietly for at least five minutes in the seated position. Two different cuffs (35 cm and 42 cm) were used depending on the arm circumference. At each visit at least three readings for systolic (SBP) and diastolic (DBP) BP and heart rate were taken at two-minute intervals in the left arm using a semi-automated device employing the oscillometric method (Omron M5-I, Omron Healthcare Europe B.V., Hoofddorp, The Netherlands). The first readings of each assessment were ignored to avoid results affected by the defense reaction (Beevers et al., ABC of hypertension, 4th Ed., London, BMJ Publishing Group, 2000) and the last two readings were averaged and recorded. The readings were thereafter confirmed after a two-minute interval with a Hawksley random zero sphygmomanometer (Hawksley and Sons, Lancing, Sussex, UK) because automatic devices may be unsuitable for some individuals for which there is no obvious reason (Id.).
SBP was measured as the point of appearance of the Korotkoff sounds (Phase I) and DBP was measured as the point of complete disappearance of the Korotkoff sounds (Phase V) according to the guidelines given by the British Hypertension Society (Id). All recordings from the semi-automated device agreed well with the random zero sphygmomanometer. Subjects with either SBP≧140 mm Hg or DBP level≧90 mm Hg were considered to be hypertensive.
Mean Arterial Pressure (MAP) was computed as MAP=(2 DBP+SBP)/3 (Vander et al., Human Physiology, The Mechanism of Body Function, 8th Ed., McGraw-Hill, New York, 2000, pp. 407-16 and 626-34, and Wilson et al., Hypertension, 1999, 34, 181-6). […]

[2] = tested on: apparently healthy volunteers; test: Low-dose potassium trial: compliance and side effects; format: in vivo, human; settings: one person receiving potassium
Experimental: The patients and the investigator were unaware of the type of supplement being given, other than that it was a nutrient. The placebo and potassium chloride pills were provided in identical containers. The adherence of the volunteers to the treatment was assessed at each visit by questioning, and by counting the pills returned.
The baseline blood pressure used for the statistical analysis was the average of the measurements taken during the first week period. For Interval level variables (e.g. BP), differences between groups were tested using the Two-Sample t test while differences within each group were tested with the Paired t test. For Ordinal level variables (e.g. compliance) these tests were performed using the Mann-Whitney Test and the Wilcoxon Signed Rank Test for comparisons between and within the two groups respectively. The Chi-Squared Test was used to assess the significance of differences between the groups for Nominal level variables (e.g. gender).

hypertensive patients = settings: 18 hypertensive patients, daily supplement of 48 mmol; cited from earlier work
[3] = 24 mmol/d slow release potassium chloride, n = 30, mean ± SEM
[4] = Week 0 to 6, listed as potassium
[5] = after six weeks of supplementation, versus placebo
[6] = within potassium group, listed as potassium
[7] = within potassium group, change Week 3 to 6, n = 30, mean ± SEM

For [Cl-].[K+] [Potassium, potassium chloride], the “DBP Week 3” value [1, 3] was 72.95 ± 2.08 mm Hg, the “DBP Week 6” value [1, 3] was 71.47 ± 1.90 mm Hg and the “MAP Week 3” value [1, 3] was 87.67 ± 2.20 mm Hg. For the same molecule, the “MAP Week 6” value [1, 3] was 84.97 ± 2.06 mm Hg, the “SBP Week 3” value [1, 3] was 117.17 ± 2.71 mm Hg and the “SBP Week 6” value [1, 3] was 111.93 ± 2.52 mm Hg. For the same molecule, the “DBP Potassium − placebo Mean Difference (95% CI)” value ([1]; Week 0 to 3) was −4.11 (−6.09, −2.13)^4 mm Hg, the “MAP Potassium − placebo Mean Difference (95% CI)” value ([1]; Week 0 to 3) was −3.34 (−5.22, −1.47)^3 mm Hg and the “SBP Potassium − placebo Mean Difference (95% CI)” value ([1]; Week 0 to 3) was −1.28 (−4.21, 1.65) mm Hg. The “DBP Potassium − placebo Mean Difference (95% CI)” value ([1]; Week 0 to 6) was −6.46 (−8.74, −4.19)^4 mm Hg, the “MAP Potassium − placebo Mean Difference (95% CI)” value ([1]; Week 0 to 6) was −7.01 (−9.12, −4.89)^4 mm Hg and the “SBP Potassium − placebo Mean Difference (95% CI)” value ([1]; Week 0 to 6) was −7.60 (−10.46, −4.73)^4 mm Hg. The “DBP Potassium − placebo Mean Difference (95% CI)” value [1, 4] was “marked and significant decrease”, the “MAP Potassium − placebo Mean Difference (95% CI)” value [1, 4] was “marked and significant decrease” and the “SBP Potassium − placebo Mean Difference (95% CI)” value [1, 4] was “marked and significant decrease”. For the same molecule, the “DBP Potassium − placebo Mean Difference (95% CI)” value ([1]; Week 3 to 6) was −2.35 (−4.70, −0.00)^5 mm Hg, the “MAP Potassium − placebo Mean Difference (95% CI)” value ([1]; Week 3 to 6) was −3.66 (−5.84, −1.49)^3 mm Hg and the “SBP Potassium − placebo Mean Difference (95% CI)” value ([1]; Week 3 to 6) was −6.32 (−8.84, −3.79)^4 mm Hg. The “reduction in DBP” value [1, 5] was 6.46 mm Hg, the “reduction in MAP” value [1, 5] was 7.01 mm Hg and the “reduction in SBP” value [1, 5] was 7.60 mm Hg. For the same molecule, the “DBP Week 3 − Week 0 mean difference” value ([1]; within potassium group) was −2.53 ± 0.73^6 mm Hg and −2.53 ± 0.73 mm Hg, the “MAP Week 3 − Week 0 mean difference” value ([1]; within potassium group) was −2.21 ± 0.72^3 mm Hg and −2.21 ± 0.72^2 mm Hg and the “SBP Week 3 − Week 0 mean difference” value ([1]; within potassium group) was −0.98 ± 1.20 mm Hg. The “DBP Week 3 − Week 0 mean difference” value [1, 6] was “significant decrease”, the “MAP Week 3 − Week 0 mean difference” value [1, 6] was “significant decrease” and the “SBP Week 3 − Week 0 mean difference” value [1, 6] was “not significantly reduced”. For the same molecule, the “DBP Week 6 − Week 0 mean difference” value ([1]; within potassium group) was −4.02 ± 0.87^5 mm Hg and −4.02 ± 0.87 mm Hg, the “MAP Week 6 − Week 0 mean difference” value ([1]; within potassium group) was −4.91 ± 0.80^5 mm Hg and −4.91 ± 0.79 mm Hg and the “SBP Week 6 − Week 0 mean difference” value ([1]; within potassium group) was −6.22 ± 1.07^5 mm Hg and −6.22 ± 1.10 mm Hg. For the same molecule, the “DBP Week 6 − Week 0 mean difference” value [1, 6] was “decreased significantly”, the “MAP Week 6 − Week 0 mean difference” value [1, 6] was “decreased significantly” and the “SBP Week 6 − Week 0 mean difference” value [1, 6] was “decreased significantly”. For the same molecule, the “DBP Week 6 − Week 3 mean difference” value [1, 7] was −1.48 ± 0.98 mm Hg and −1.48 ± 0.97 mm Hg, the “MAP Week 6 − Week 3 mean difference” value [1, 7] was −2.70 ± 0.91^4 mm Hg and −2.70 ± 0.91 mm Hg and the “SBP Week 6 − Week 3 mean difference” value [1, 7] was −5.23 ± 1.03^5 mm Hg and −5.23 ± 1.00 mm Hg. The “SBP Week 6 − Week 3 mean difference” value ([1]; within potassium group, change Week 3 to 6, n = 30, mean ± SEM, listed as potassium) was “decreased significantly”, the side effects reported [2] was “increase in appetite” and the “effect on BP” value (hypertensive patients) was “lower BP”.
